EC50, IC50 and outcome data for 73 compounds are collected here from PubChem BioAssay AID179 (DTP/NCI, 2004).

The test system of the experiment is CEM cells HIV-1 protection, formazan growth assay. Briefly: NCI AIDS Antiviral Assay. The following applies: for IC50: measured here: growth of uninfected CEM cells. In outline: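 CEM (human) cells, HIV-1 infected vs uninfected, 5-point dosing, formazan growth read-out. Retest threshold 50% protection.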

Calls of active or inactive are those of the source.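 How the source made its calls: active means compounds giving half or more protection of infected cells from virus-caused growth loss, again on retest; inactive means the rest.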

For the compound `O=c1cn[nH]c2ccc(F)cc12`, the EC50 is greater than 219 µM and the IC50 is greater than 219 µM.

Regarding `N#Cc1c(N)oc(-c2cccc([N+](=O)[O-])c2)c1C#N`, the EC50 is greater than 200 µM and the IC50 is 10.7 µM.

As to `Clc1nc(Cl)nc(Nc2ncccn2)n1`, the EC50 was greater than 200 µM and the IC50 was greater than 200 µM.

For `O=[N+]([O-])c1ccc(OP(=O)(Oc2ccc([N+](=O)[O-])cc2)OP(=O)(Oc2ccc([N+](=O)[O-])cc2)Oc2ccc([N+](=O)[O-])cc2)cc1`, the EC50 is greater than 200 µM and the IC50 came out at 50.1 µM.

With `Nc1nc(N)nc(-c2cccs2)n1`, the EC50 was greater than 200 µM and the IC50 is greater than 200 µM.

On to `NCCCSCC(=O)O`, for which the outcome was inactive.

As to `CC1(C)CC(=O)c2c(-c3ccc(Cl)cc3)c(C#N)c(=S)n(C3OC(CO)C(O)C(O)C3O)c2C1` (centres undefined), the EC50 is greater than 200 µM and the IC50 worked out at 31.6 µM.

As to `O=C(N=C1[Se]C(=Nc2ccccc2)C(=Nc2ccccc2)N1c1ccccc1)c1ccccc1`, the EC50 is greater than 200 µM and the IC50 was found to be 107 µM.

On to `O=c1oc2c3ccc4ccccc4c3n(CCN3CCCCC3)c2c2ccccc12`, for which the EC50 is greater than 8.71 µM and the IC50 came to 6.76 µM.

As for `O=c1c2cccnc2ncn1CCCN1CCCCC1`, the outcome was inactive.

For the compound `CCOC(=O)c1cn(C)c2c1C(O)=C(C(=O)OC)CC(=O)N2`, the EC50 was greater than 234 µM and the IC50 worked out at 178 µM.

Turning to `O=C(O)c1ccc(S(=O)(=O)c2ccccc2)c([N+](=O)[O-])c1`, the EC50 is greater than 2510 µM and the IC50 is 288 µM.

As to `CC(=O)N1C(=O)C(=O)c2ccccc21`, the EC50 was greater than 200 µM and the concentration for half-maximal inhibition (IC50) is greater than 200 µM.

Consider `C[Si](C)(C)O/C=C1\CCCCC1=O`, for which the EC50 is greater than 200 µM and the IC50 is greater than 200 µM.

Regarding `O=C1c2ccccc2N2OC3C4CCC(C4)C3C12c1ccccc1` (centres undefined), the EC50 was greater than 16.2 µM and the concentration for half-maximal inhibition (IC50) was determined as 11.5 µM.

Consider `O=[N+]([O-])c1cccc(S(=O)(=O)c2ccc(F)c([N+](=O)[O-])c2)c1`, for which the EC50 is greater than 200 µM and the IC50 worked out at 0.501 µM.

In the case of `CC1Cn2c(c(-c3ccccc3)c(=O)[nH]c2=O)O1` (centres undefined), the EC50 was greater than 363 µM and the IC50 is greater than 363 µM.

Take `Cc1ccc2c3c4c(ccc13)C(C)(C)OC4=C(C(C)C)C2=O`: the EC50 is greater than 200 µM and the IC50 came out at 15.8 µM.

Take `COc1ccc(-c2c(C)oc3cc(OC(C)=O)ccc3c2=O)cc1`: the EC50 is greater than 200 µM and the IC50 amounted to 30.9 µM.

As to `C/C(=N\OCC(O)CNC(C)C)c1ccc2c(c1)NC(=O)CS2` (centres undefined), the result was inactive.

As for `CCN(CC)CC(C)(C)C(=O)/C=C/c1ccc(/C=C/C(=O)C(C)(C)CN(CC)CC)cc1`, the outcome was inactive.

`COc1cc2c(cc1O)C1C(O2)c2c(OC)cc3c(c2OC1(C)C)CCC(C)(C)O3` (centres undefined): the EC50 is greater than 200 µM and the IC50 was 32.4 µM.

With `COC(=O)C1C(OC(=O)C(Cl)(c2ccccc2)c2ccccc2)CC2CCC1N2C` (centres undefined), the EC50 is greater than 200 µM and the IC50 is greater than 200 µM.

With `CCOC(=O)C1C(=O)CN2CCc3c([nH]c4ccccc34)C12` (centres undefined), the EC50 was greater than 29.5 µM and the IC50 was greater than 29.5 µM.

In the case of `CC1CC/C(=[N+](/C)Nc2ccc([N+](=O)[O-])cc2[N+](=O)[O-])C2CCC(C(C)C(=O)O)C=C12` (centres undefined), the result was inactive.

As to `O=c1/c(=C/c2ccccc2[N+](=O)[O-])sc2nc3ccccc3n12`, the EC50 was greater than 3.24 µM and the half-maximal inhibitory concentration (IC50) is greater than 3.24 µM.

Take `CCOC(=O)CC1CCN(C(=O)c2ccccc2)C2Cc3c([nH]c4ccccc34)C12C[N+](=O)[O-]` (centres undefined): the EC50 was greater than 200 µM and the IC50 was determined as 85.1 µM.

Turning to `CC(C)(C)[Si](C)(C)OCC1OC(n2ccc(=O)[nH]c2=O)C(O[Si](C)(C)C(C)(C)C)C1(CC#N)Sc1ccccc1` (centres undefined), the EC50 was greater than 200 µM and the IC50 is 10.7 µM.

On to `COc1c(C)cc(Cc2cc(C)c(OC)c(Br)c2)cc1Br`, for which the EC50 is greater than 200 µM and the 50% inhibitory concentration (IC50) came out at 91.2 µM.

As to `CCCCCCCCCCCC(=O)CC(=O)c1c(O)cccc1O`, the EC50 was greater than 15.5 µM and the IC50 is greater than 15.5 µM.

In the case of `COc1ccc(C2c3cc4c(cc3C(O)C3CCC(=O)N23)OCO4)cc1` (centres undefined), the EC50 was greater than 200 µM and the IC50 was greater than 200 µM.

Take `Cc1cc(NS(=O)(=O)c2ccc(N)cc2)no1`: the EC50 was greater than 200 µM and the half-inhibitory concentration (IC50) is greater than 200 µM.

Consider `COc1cc(/C=C2/C(=O)N(C(=O)c3ccc(Cl)cc3)N=C2C)cc(OC)c1OC`, for which the EC50 is greater than 17.4 µM and the IC50 was greater than 17.4 µM.

As to `COc1cccc2c(=O)c3c(O)c4cc(N(C)C)ccc4c(OC(C)=O)c3oc12`, the EC50 is greater than 200 µM and the 50% inhibitory concentration (IC50) came out at 8.91 µM.

For `COc1ccc(CNc2nc3cc(C(F)(F)F)ccc3nc2C(=O)O)cc1`, the EC50 was greater than 200 µM and the IC50 turned out to be 38.9 µM.

With `OC(c1ccccc1)(c1cccnc1)C(O)(c1ccccc1)c1cccnc1` (centres undefined), the EC50 is greater than 200 µM and the IC50 is greater than 200 µM.

`C#CCC(N)(CO)C(=O)O` (centres undefined): the outcome was inactive.

As to `COC1=C(C)C(=O)c2c(c(COC(N)=O)c3n2CC(OC(C)=O)C3OC(C)=O)C1=O` (centres undefined), the EC50 is greater than 2 µM and the IC50 turned out to be 0.178 µM.

As for `NCC[PH+](c1ccccc1)c1ccccc1.NCC[PH+](c1ccccc1)c1ccccc1.[Cl-].[Pt+4]`, the EC50 was greater than 200 µM and the IC50 came out at 72.4 µM.

Consider `CC(=O)c1cccc(N2COC(C)(C)c3nc4ccccc4n3C2)c1`, for which the EC50 was greater than 200 µM and the IC50 is 107 µM.

`O=C1CN2Cc3c(sc4c3CCCC4)N=C2N1`: the EC50 is greater than 200 µM and the IC50 turned out to be 138 µM.

For the compound `C=CCCCC(C#N)(c1ccccc1)N1CCCC1` (centres undefined), the result was inactive.

As for `FC(F)(F)c1ccccc1C1SCc2nc3ccccc3n21` (centres undefined), the result was inactive.

In the case of `CCc1cccc(C)c1NC(=O)NS(=O)(=O)c1ccc(C)cc1`, the EC50 is greater than 759 µM and the IC50 was greater than 759 µM.

Consider `O=C(NC(O)(C(F)(F)F)C(F)(F)F)c1ccccc1`, for which the EC50 is greater than 200 µM and the IC50 turned out to be 129 µM.

In the case of `COP(=O)(OC)C(Cc1c[nH]c2ccccc12)NC(=O)OCc1ccccc1` (centres undefined), the EC50 is greater than 200 µM and the concentration for half-maximal inhibition (IC50) is greater than 200 µM.

For `CC(C)Oc1cc2c(c3oc(=O)cc(-c4ccccc4)c13)C(=O)[C@H](C)[C@@H](C)O2`, the EC50 was greater than 200 µM and the IC50 was 51.3 µM.

Consider `Cc1nc2c(sc(=S)n2-c2ccccc2)c(=O)[nH]1`, for which the EC50 was greater than 91.2 µM and the IC50 is greater than 91.2 µM.

In the case of `c1ccc2c(c1)[nH]c1c2c(N2CCOCC2)nn2cnnc12`, the EC50 is greater than 200 µM and the IC50 is greater than 200 µM.

Compound `CCC(NC(=O)c1ccccc1SC(=O)CCCC[n+]1ccccc1)C(N)=O` (centres undefined) gave an EC50 greater than 3.8 µM.

For `CCC1=C(C)c2cc3[n-]c(cc4nc(c(C=O)c5[n-]c(cc1n2)c(C)c5CC)C(C)=C4CC)c(C)c3CC.[Ni+2]`, the EC50 is greater than 50.1 µM and the IC50 is greater than 50.1 µM.

Regarding `C=C(C)C(CC=C(C)C)CC12CC(CC=C(C)C)C(C)(C)C(CC=C(C)C)(C(=O)C(Cc3ccc(O)c(O)c3)=C1O)C2=O` (centres undefined), the EC50 was greater than 200 µM and the IC50 amounted to 158 µM.

On to `O=C1OC(=O)c2c1c(-c1ccccc1)cn2-c1ccc(Cl)cc1`, for which the result was inactive.

Consider `Cc1ccc2c(c1C)C(=O)C1(Cc3cc4c(cc3C1=O)CCC4)C2` (centres undefined), for which the EC50 was greater than 100 µM and the IC50 was greater than 100 µM.

For the compound `CCOC1=C(c2ccccc2)N2CCCCC2O1` (centres undefined), the EC50 is greater than 200 µM and the IC50 turned out to be 2.57 µM.

For the compound `CC#CC(O)(C(=O)OC1CCC2CCC1N2C)C1CCCC1` (centres undefined), the EC50 is greater than 200 µM and the 50% inhibitory concentration (IC50) is greater than 200 µM.

Regarding `CCOP(=O)(OCC)C(=C1C=C(C(C)(C)C)C(=O)C(C(C)(C)C)=C1)P(=O)(OCC)OCC`, the EC50 is greater than 200 µM and the half-maximal inhibitory concentration (IC50) turned out to be 0.933 µM.

On to `CCc1cccc(C)c1NC(=O)C1=C(C)NC(C)=C(C(=O)Nc2c(C)cccc2CC)C1c1ccc([N+](=O)[O-])cc1`, for which the EC50 was greater than 12.9 µM and the IC50 is greater than 12.9 µM.

Turning to `Clc1ccc(N=c2ccc3ccccc3[oH+]2)cc1.Clc1ccc(N=c2ccc3ccccc3[oH+]2)cc1.[Ni]`, the result was inactive.

Turning to `O=C1CC(=O)NC(=NN2C(=O)/C(=C/c3ccc(Cl)cc3)N=C2c2ccccc2)N1`, the EC50 was greater than 200 µM and the IC50 came out at 32.4 µM.

For `NC(N)=NS(=O)(=O)c1ccc(NNc2c3ccccc3nc3c(C(=O)Nc4ccc(S(N)(=O)=O)cc4)cccc23)cc1`, the EC50 is greater than 200 µM and the IC50 came out at 10.2 µM.

With `COC(=O)c1cc(=O)c2scc(C)[n+]2[nH]1`, the EC50 was greater than 955 µM and the IC50 was greater than 955 µM.

On to `CC(c1ccccc1)N1CC(C)(c2ccccc2)N(O)C(c2ccccc2)C1C` (centres undefined), for which the EC50 was greater than 18.6 µM and the IC50 is greater than 18.6 µM.

As for `O=C1c2ccccc2-c2c1c1ccccc1c(=O)n2Cc1ccccc1`, the EC50 is greater than 29.5 µM and the IC50 is greater than 29.5 µM.

As to `CCCC(CC)c1cc(O)c(O)cc1C(CC)CCC` (centres undefined), the EC50 is greater than 200 µM and the IC50 came out at 105 µM.

`CCOC(=O)N/N=C(/N)Cc1ccc(Cl)cc1`: the EC50 was greater than 200 µM and the IC50 is 120 µM.

With `CC(=O)CC(=O)Nc1ccccc1C(F)(F)F`, the EC50 was greater than 204 µM and the IC50 was greater than 204 µM.

For `CCOC(=O)C1([Se]c2ccccc2)CCCC1=O` (centres undefined), the EC50 is greater than 219 µM and the IC50 is 20.4 µM.

In the case of `Cc1sc2ncnc(N)c2c1C`, the EC50 is greater than 275 µM and the IC50 was greater than 275 µM.

Take `CNC(=S)SC1=NS(=O)(=O)c2ccccc2N1`: the EC50 is greater than 234 µM and the IC50 amounted to 174 µM.

Consider `CN(C)c1ccc(/C=C(/C(=O)O)c2csc(-c3nc(/C(=C\c4ccc(N(C)C)cc4)C(=O)O)cs3)n2)cc1`, for which the EC50 is greater than 34.7 µM and the IC50 is greater than 34.7 µM.

Turning to `C/C(=N/NC(=S)Nc1ccccc1Cl)c1cccc(/C(C)=N\NC(=S)Nc2ccccc2Cl)n1`, the EC50 was greater than 200 µM and the IC50 turned out to be 87.1 µM.

With `CN(C)C(C1=C(O)C(c2ccccc2)N(c2ccccc2)C1=O)N1CCOCC1` (centres undefined), the outcome was inactive.
